Reference: PubChem BioAssay (NCI)
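Following 48 hours of exposure in 96-well plates, responses at five concentrations were used to interpolate endpoints linearly. The concentration for 50% growth inhibition is given as GI50. Definition used: TGI = concentration required for complete inhibition of growth.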

Columns and labels:
Test in all cases: growth of human tumour cells (NCI), 48 h
CCRF-CEM leukemia = tested on: CCRF-CEM leukemia
NCI-H23 lung = tested on: NCI-H23 lung
SK-MEL-5 melanoma = tested on: SK-MEL-5 melanoma
HL-60(TB) leukemia = tested on: HL-60(TB) leukemia
K-562 leukemia = tested on: K-562 leukemia
SF-268 CNS = tested on: SF-268 CNS
UO-31 renal = tested on: UO-31 renal
SK-OV-3 ovarian = tested on: SK-OV-3 ovarian
MALME-3M melanoma = tested on: MALME-3M melanoma
OVCAR-5 ovarian = tested on: OVCAR-5 ovarian

Compound	GI50 (CCRF-CEM leukemia) [nM]	TGI (CCRF-CEM leukemia) [µM]	GI50 (NCI-H23 lung) [µM]	TGI (NCI-H23 lung) [µM]	GI50 (SK-MEL-5 melanoma) [nM]	TGI (SK-MEL-5 melanoma) [µM]	GI50 (HL-60(TB) leukemia) [nM]	TGI (HL-60(TB) leukemia) [µM]	GI50 (K-562 leukemia) [nM]	TGI (K-562 leukemia) [µM]	GI50 (SF-268 CNS) [nM]	TGI (SF-268 CNS) [µM]	GI50 (UO-31 renal) [nM]	TGI (UO-31 renal) [µM]	GI50 (SK-OV-3 ovarian) [µM]	TGI (SK-OV-3 ovarian) [µM]	GI50 (MALME-3M melanoma) [nM]	TGI (MALME-3M melanoma) [µM]	GI50 (OVCAR-5 ovarian) [µM]	TGI (OVCAR-5 ovarian) [µM]
COc1ccc(Cl)cc1Nc1nc(C(F)(F)F)ccc1C(=O)N/N=C/c1cc(OC)c(OC)c(OC)c1	1270	> 100	5.35	40.6	1680	4.57	2210	5.77	2420	> 100	1320	5.75	1240	3.79	3.04	15	1070	4.05	5.59	24.4
O=c1ccc(=O)c2c(=O)c3ccccc3c(=O)c1=2	–	> 100	–	> 100	–	35.5	–	70.9	–	> 100	–	> 100	–	> 100	–	> 100	–	> 100	–	> 100
CCOC(=O)CC1NC(=O)CS1 (centres undefined)	–	> 100	–	> 100	–	> 100	–	> 100	–	> 100	–	> 100	–	> 100	–	> 100	–	> 100	–	> 100
Cn1c(=O)c2c(ncn2CN2CCN(Cn3cnc4c3c(=O)n(C)c(=O)n4C)CC2)n(C)c1=O	–	39.5	–	> 100	–	> 100	–	54	–	> 100	–	> 100	–	> 100	–	> 100	–	> 100	–	> 100
CSc1ccc(/C=C2\C=C(CC(=O)NCc3ccc(C(=O)c4ccccc4)cc3)c3cc(F)ccc32)cc1	33.7	38.9	0.036	2.89	35	0.365	40.9	0.208	39.3	> 100	138	15.1	360	13	0.0399	0.704	215	44.7	0.0618	24.9
C=C(C=O)CCCC(C)[C@@H]1CCC23CC12CCC1[C@@]2(C)CCC(OC(C)=O)C(C)(C)C2CC(OC2OC(COC(C)=O)C(O)C(O)C2O)[C@]13C (some centres undefined)	–	5	–	14.8	–	11.3	–	2.04	–	6.78	–	12.3	–	11	–	12	–	7.17	–	11.8
COc1cc(Cn2c(-c3nonc3N)nc3ccccc32)ccc1C	403	> 100	1.02	> 55.6	354	19.8	345	50.8	375	> 100	825	> 100	580	> 100	0.493	32	526	72.7	1.59	43.5
O=C1c2ccccc2-n2c1nc1ccccc1c2=O	–	> 100	–	33.8	–	26	–	41.4	–	> 44.6	–	> 100	–	42.9	–	> 100	–	29	–	29.9
Cc1cc(-c2nnc3n2CCCCC3)c(C)n1-c1ccc(Cl)c(Cl)c1	18500	71.5	12.3	35.2	2180	6.08	20600	61.2	5140	39.3	17800	36.6	12600	36.7	19.2	45.7	13800	30.4	39	> 100
N#C[C@@H]1C(n2ccc(N)nc2=O)O[C@H](CO)[C@H]1O (some centres undefined)	135	> 100	4.51	> 100	38300	> 100	29400	> 100	19600	> 100	22300	> 100	6180	> 83.4	39.6	> 100	> 55400	> 100	> 75.2	> 100
O=[N+]([O-])c1ccc2c(c1)[O][Sn]([I])([I])[O]2	42300	> 100	60	> 100	> 100000	> 100	> 100000	> 100	> 100000	> 100	> 100000	> 100	> 100000	> 100	> 100	> 100	> 100000	> 100	> 100	> 100
CC1CCN(CC(=O)N2c3ccccc3Sc3cc4ccccc4cc32)CC1	–	> 100	–	> 100	–	> 100	–	> 100	–	> 100	–	> 100	–	> 100	–	> 100	–	> 100	–	> 100
COC(=O)CCC1=C(C)/C(=C/c2[nH]c(-c3ccc[nH]3)cc2OC)N=C1C	306	6.5	0.587	3.84	96.5	0.248	414	2.38	374	4.9	708	7.01	556	2.92	3.93	11.6	1140	3.27	1.04	12.9
COC(=O)c1c(-c2ccccc2)sc(-c2cccc3ccccc23)c1C(=O)OC	–	> 100	–	> 100	–	> 100	–	> 100	–	> 100	–	> 100	–	> 100	–	> 100	–	> 100	–	> 100
O=C1CCCN1CC#CCN1CCCC1	> 100000	> 100	> 100	> 100	> 100000	> 100	> 100000	> 100	> 100000	> 100	> 100000	> 100	> 100000	> 100	> 100	> 100	> 100000	> 100	> 100	> 100
CN=C1SC(=Nc2ccc(N(C)C)cc2)N1C	–	> 100	–	> 100	–	> 100	–	> 100	–	> 100	–	> 100	–	> 100	–	67	–	> 100	–	> 100
COC(=O)C1=C(CS(=O)c2ccccc2[N+](=O)[O-])ON(C)C1c1ccccc1 (centres undefined)	–	39.3	–	> 100	–	> 100	–	38.6	–	78	–	94.6	–	> 100	–	> 100	–	> 100	–	> 100

Compound	GI50 (CCRF-CEM leukemia) [nM]	TGI (CCRF-CEM leukemia) [µM]	GI50 (NCI-H23 lung) [µM]	TGI (NCI-H23 lung) [µM]	GI50 (SK-MEL-5 melanoma) [nM]	TGI (SK-MEL-5 melanoma) [µM]	GI50 (HL-60(TB) leukemia) [nM]	TGI (HL-60(TB) leukemia) [µM]	GI50 (K-562 leukemia) [nM]	TGI (K-562 leukemia) [µM]	GI50 (SF-268 CNS) [nM]	TGI (SF-268 CNS) [µM]	GI50 (UO-31 renal) [nM]	TGI (UO-31 renal) [µM]	GI50 (SK-OV-3 ovarian) [µM]	TGI (SK-OV-3 ovarian) [µM]	GI50 (MALME-3M melanoma) [nM]	TGI (MALME-3M melanoma) [µM]	GI50 (OVCAR-5 ovarian) [µM]	TGI (OVCAR-5 ovarian) [µM]
O=c1[nH]c(=O)n(C2OC3COC2C3O)cc1F (centres undefined)	–	> 100	–	> 100	–	> 100	–	> 100	–	> 100	–	> 100	–	> 100	–	> 100	–	> 100	–	> 100
O=C1CC(=O)OC(c2ccc([N+](=O)[O-])cc2)O1	2450	8.79	2.15	5.2	1720	3.39	2010	5.51	2560	> 100	2930	11	1640	3.55	7.05	19.2	2280	7.02	2.04	4.93
CC(C)[C@H]1C(=O)N[C@@H](CCCN=C(N)N)C(=O)NCC(=O)N[C@@H](CC(=O)O)C(=O)N[C@H](Cc2ccccc2)C(=O)N1C	> 100000	> 100	10.6	67.6	366	1.33	> 100000	> 100	> 100000	> 100	7070	> 100	> 73200	> 100	> 100	> 100	> 100000	> 100	1.34	> 100
COC1CC(OC(=O)c2ccccc2)C(OC(=O)c2ccccc2)C(C)O1 (centres undefined)	–	> 100	–	> 100	–	> 100	–	> 100	–	> 100	–	> 100	–	> 100	–	> 100	–	> 100	–	> 100
O=C1Nc2cccc3cc(NCC(O)CCl)cc1c23 (centres undefined)	–	> 100	–	> 100	–	> 100	–	> 100	–	> 100	–	> 100	–	92.1	–	> 100	–	> 100	–	> 100
CN1C(=O)C(Cl)(C(Cl)(Cl)S(=O)(=O)O)C(=O)c2ccccc21 (centres undefined)	–	> 100	–	> 100	–	> 100	–	> 100	–	> 100	–	> 100	–	> 100	–	> 100	–	76.1	–	–
Cc1ccc2c(c1)C(c1cccc3ccccc13)OC2=O (centres undefined)	–	> 100	–	> 100	–	> 100	–	> 100	–	> 100	–	> 100	–	> 100	–	> 100	–	> 100	–	> 100
Cc1cc(N/N=C/c2nc(-c3ccc(Cl)cc3)oc2C)c2cc(Cl)ccc2n1	1590	7.18	5.34	19.1	8640	20.8	1980	4.82	571	2.56	3150	11.2	12600	25.2	3.54	12.8	1780	3.36	8.08	20.6
Cn1cc(CNCC2CCN(c3ncc(C(=O)NO)cn3)CC2)c2ccccc21	< 11.6	49.3	0.0218	0.436	< 10.8	0.0307	24.2	17.5	< 12	> 46.9	25.9	0.896	24.7	0.447	0.0199	0.361	< 10	15.2	< 0.01	0.598
CCOc1c(Cl)cc(CNC(C)C(O)c2ccccc2)cc1OC (centres undefined)	35600	> 100	31.3	> 100	16600	30.6	21100	46.1	20900	68.9	42100	> 100	18000	89.6	41.1	> 100	16600	33.6	24.3	96.4
OC12CC/C(=N/OCc3ccccc3)CC1c1ccccc12 (centres undefined)	–	> 100	–	> 100	–	> 100	–	> 100	–	> 100	–	> 100	–	> 100	–	> 100	–	> 100	–	> 100
C=C1C(=O)OC2/C=C(\C=O)CC/C=C(\C)C(O)C[C@@H]12 (some centres undefined)	–	> 26.5	–	17.7	–	22.4	–	> 21.4	–	> 36.1	–	14.7	–	26.8	–	52.5	–	22.2	–	38.2
C1=CC=C2NCCOCCNC3=CC=CC=CC3=NCCOCCN=C2C=C1	–	> 100	–	> 100	–	> 100	–	70.5	–	> 100	–	> 100	–	> 100	–	> 100	–	76	–	> 100
COC(=O)CCCCCN=Cc1c(O)c(O)c(C(C)C)c2cc(C)c(-c3c(C)cc4c(C(C)C)c(O)c(O)c(C=NCCCCCC(=O)OC)c4c3O)c(O)c12	946	11.1	1.32	> 32.5	4460	12.6	1090	7.93	1070	6.03	1510	> 32.5	1240	> 32.5	1.51	20	2450	> 32.5	–	–
CC(=O)O[C@@H]1C2C(=O)OC(=O)C2C2CCC[C@]23O[C@H]13 (some centres undefined)	–	> 100	–	–	–	> 100	–	> 100	–	> 100	–	> 100	–	> 100	–	> 100	–	> 100	–	–
Cc1ccc(S(=O)(=O)N=Nc2c(O)[nH]c3c(Cl)cc(Cl)cc23)cc1	–	> 100	–	> 100	–	> 100	–	> 100	–	> 100	–	–	–	> 100	–	> 100	–	> 100	–	> 100
